According to ChEMBL document CHEMBL1143152, “Calcitonin gene-related peptide (CGRP) receptor antagonists: investigations of a pyridinone template” (Bioorg Med Chem Lett, 2008):
Blank lines part the entries; values can stand above or below the molecule they belong to.

Assays:
[1] = target: T1, Calcitonin gene-related peptide type 1 receptor (Homo sapiens, UniProt O60894+Q16602); test: Antagonist activity at human recombinant CL receptor /RAMP1 assessed as inhibition of cAMP accumulation by cell based assay; format: functional
T1 sequence (Q16602 whole entry, one chain of several): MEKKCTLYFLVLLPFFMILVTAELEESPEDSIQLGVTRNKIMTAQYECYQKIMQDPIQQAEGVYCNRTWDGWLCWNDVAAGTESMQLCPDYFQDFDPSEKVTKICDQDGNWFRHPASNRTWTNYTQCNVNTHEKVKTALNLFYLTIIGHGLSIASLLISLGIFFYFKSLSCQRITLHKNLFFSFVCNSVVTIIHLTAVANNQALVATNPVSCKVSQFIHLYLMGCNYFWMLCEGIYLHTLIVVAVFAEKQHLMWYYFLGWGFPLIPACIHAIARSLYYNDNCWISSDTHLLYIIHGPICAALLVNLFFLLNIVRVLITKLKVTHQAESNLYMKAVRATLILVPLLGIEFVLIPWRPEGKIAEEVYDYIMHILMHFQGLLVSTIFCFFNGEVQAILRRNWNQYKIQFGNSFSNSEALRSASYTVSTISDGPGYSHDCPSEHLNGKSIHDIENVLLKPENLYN

[2] = target: T1, Calcitonin gene-related peptide type 1 receptor; test: Antagonist activity at human recombinant CL receptor /RAMP1 assessed as inhibition of cAMP accumulation in presence of 50% human serum by cell based assay; format: functional
[3] = target: T1, Calcitonin gene-related peptide type 1 receptor; test: Displacement of [125I]CGRP from human recombinant CL receptor /RAMP1
[4] = Bioavailability in dog at 1.0 mg/kg, po; format: ADME, organism-based, Canis lupus familiaris; settings: in vivo
[5] = Half life in dog at 0.5 mg/kg, iv and 1.0 mg/kg, po; format: ADME, organism-based, Canis lupus familiaris; settings: in vivo
[6] = Cmax in dog at 0.5 mg/kg, iv and 1.0 mg/kg, po; format: ADME, organism-based, Canis lupus familiaris; settings: in vivo
[7] = Clearance in dog at 0.5 mg/kg, iv and 1.0 mg/kg, po; format: ADME, organism-based, Canis lupus familiaris; settings: in vivo
[8] = Cmax in rat at 2.0 mg/kg, iv and 10 mg/kg, po; format: ADME, organism-based; settings: in vivo
[9] = Half life in rat at 2.0 mg/kg, iv and 10 mg/kg, po; format: ADME, organism-based; settings: in vivo
[10] = Clearance in rat at 2.0 mg/kg, iv and 10 mg/kg, po; format: ADME, organism-based; settings: in vivo
[11] = Bioavailability in rat at 10 mg/kg, po; format: ADME, organism-based; settings: in vivo

Structure (SMILES): O=C(Nc1cc(-c2ccc(O)cc2)cn(CC(F)(F)F)c1=O)N1CCC(n2c(=O)[nH]c3ncccc32)CC1
IC50 [1]: 0.282 µM
IC50 [2]: 0.971 µM
Ki [3]: 0.096 µM

Structure (SMILES): O=C(Nc1cc(-c2cccnc2)cn(CC(F)(F)F)c1=O)N1CCC(n2c(=O)[nH]c3ncccc32)CC1
IC50 [1]: 0.651 µM
bioavailability [4]: 56%
half-life [5]: 5.4 h
Cmax [6]: 7.4 µM
clearance [7]: 0.3 mL/min/kg
Ki [3]: 0.635 µM

Structure (SMILES): O=C(Nc1cc(-c2ccccc2)cn(CC(F)(F)F)c1=O)N1CCC(n2c(=O)[nH]c3ncccc32)CC1
IC50 [1]: 0.209 µM
bioavailability [4]: 58%
Cmax [8]: 5.3 µM
half-life [5]: 3.7 h
half-life [9]: 2.5 h
clearance [10]: 2.3 mL/min/kg
Cmax [6]: 10.3 µM
clearance [7]: 0.2 mL/min/kg
bioavailability [11]: 31%
Ki [3]: 0.095 µM

Structure (SMILES): O=C(Nc1cc(-c2ccsc2)cn(CC(F)(F)F)c1=O)N1CCC(n2c(=O)[nH]c3ncccc32)CC1
IC50 [1]: 0.345 µM
Cmax [8]: 5.1 µM
half-life [9]: 0.9 h
clearance [10]: 9.6 mL/min/kg
bioavailability [11]: 44%
Ki [3]: 0.105 µM

Structure (SMILES): COCCn1cc(-c2ccn[nH]2)cc(NC(=O)N2CCC(n3c(=O)[nH]c4ncccc43)CC2)c1=O
IC50 [1]: 0.307 µM
IC50 [2]: 0.394 µM
Ki [3]: 0.14 µM

Structure (SMILES): COCCn1cc(-c2cccnc2)cc(NC(=O)N2CCC(n3c(=O)[nH]c4ncccc43)CC2)c1=O
IC50 [1]: 1.19 µM
Ki [3]: 0.695 µM

Structure (SMILES): O=C(Nc1cc(-c2ccccc2)cn(CC2CC2)c1=O)N1CCC(n2cc(-c3ccccc3)[nH]c2=O)CC1
IC50 [1]: 0.36 µM
Ki [3]: 0.08 µM

Structure (SMILES): COCCn1cc(-c2ccsc2)cc(NC(=O)N2CCC(n3c(=O)[nH]c4ncccc43)CC2)c1=O
IC50 [1]: 0.54 µM
Cmax [8]: 0.08 µM
half-life [9]: 2.8 h
clearance [10]: 23.5 mL/min/kg
bioavailability [11]: 1%
Ki [3]: 0.39 µM

Structure (SMILES): O=C(Nc1cc(-c2cccc(F)c2)cn(CC(F)(F)F)c1=O)N1CCC(n2c(=O)[nH]c3ncccc32)CC1
IC50 [1]: 0.119 µM
Ki [3]: 0.042 µM

Structure (SMILES): O=C(Nc1cc(-c2cccc(F)c2F)cn(CC(F)(F)F)c1=O)N1CCC(n2c(=O)[nH]c3ncccc32)CC1
IC50 [1]: 0.018 µM
bioavailability [4]: 65%
Cmax [8]: 9.4 µM
half-life [5]: 3.3 h
IC50 [2]: 0.811 µM
half-life [9]: 6.3 h
clearance [10]: 0.8 mL/min/kg
Cmax [6]: 9.4 µM
clearance [7]: 0.2 mL/min/kg
bioavailability [11]: 34%
Ki [3]: 0.017 µM

Structure (SMILES): Cn1cc(C2C=CN=N2)cc(NC(=O)N2CCC(n3c(=O)[nH]c4ncccc43)CC2)c1=O (stereo not given)
IC50 [1]: 0.184 µM
bioavailability [4]: 6%
half-life [5]: 1.2 h
IC50 [2]: 0.872 µM
Cmax [6]: 0.3 µM
clearance [7]: 2.8 mL/min/kg
Ki [3]: 0.071 µM

Structure (SMILES): COCCn1cc(-c2ccc(O)cc2)cc(NC(=O)N2CCC(n3c(=O)[nH]c4ncccc43)CC2)c1=O
IC50 [1]: 0.17 µM
IC50 [2]: 0.28 µM
Ki [3]: 0.074 µM

Structure (SMILES): COCCn1cc(-c2ccccc2)cc(NC(=O)N2CCC(n3c(=O)[nH]c4ncccc43)CC2)c1=O
IC50 [1]: 0.665 µM
Cmax [8]: 1.3 µM
half-life [9]: 0.5 h
clearance [10]: 25.3 mL/min/kg
bioavailability [11]: 37%
Ki [3]: 0.228 µM

Structure (SMILES): O=C(Nc1cc(-c2ccn[nH]2)cn(CC(F)(F)F)c1=O)N1CCC(n2c(=O)[nH]c3ncccc32)CC1
IC50 [1]: 0.55 µM
IC50 [2]: 1.42 µM
Ki [3]: 0.205 µM

Structure (SMILES): O=C(Nc1ccc(-c2ccccc2)n(CC2CC2)c1=O)N1CCC(n2cc(-c3ccccc3)[nH]c2=O)CC1
Ki [3]: 3.4 µM

Structure (SMILES): O=C(Nc1cc(-c2ccccc2)cn(CC2CC2)c1=O)N1CCC(n2c(=O)[nH]c3ncccc32)CC1
IC50 [1]: 0.302 µM
Ki [3]: 0.17 µM

Structure (SMILES): Cn1cc(-c2ccc(S(C)(=O)=O)cc2)cc(NC(=O)N2CCC(n3c(=O)[nH]c4ncccc43)CC2)c1=O
Ki [3]: 1.75 µM

Structure (SMILES): Cn1cc(C2C=NC=N2)cc(NC(=O)N2CCC(n3c(=O)[nH]c4ncccc43)CC2)c1=O (stereo not given)
Ki [3]: 2.05 µM

Other lines, results leading:

IC50 [1]: 1.53 µM
Ki [3]: 0.495 µM
Structure (SMILES): COc1ccc(-c2cc(NC(=O)N3CCC(n4c(=O)[nH]c5ncccc54)CC3)c(=O)n(C)c2)cc1

Ki [3]: 9 µM
Structure (SMILES): Cn1cc(-c2ccc(C(=O)O)cc2)cc(NC(=O)N2CCC(n3c(=O)[nH]c4ncccc43)CC2)c1=O

IC50 [1]: 0.164 µM
IC50 [2]: 1 µM
Ki [3]: 0.041 µM
Structure (SMILES): COCCn1cc(-c2cccc(F)c2F)cc(NC(=O)N2CCC(n3c(=O)[nH]c4ncccc43)CC2)c1=O

IC50 [1]: 0.33 µM
Cmax [8]: 7.4 µM
half-life [9]: 1 h
clearance [10]: 8.9 mL/min/kg
bioavailability [11]: 47%
Ki [3]: 0.075 µM
Structure (SMILES): Cn1cc(-c2ccsc2)cc(NC(=O)N2CCC(n3c(=O)[nH]c4ncccc43)CC2)c1=O

IC50 [1]: 0.477 µM
Ki [3]: 0.213 µM
Structure (SMILES): Cn1cc(-c2ccccc2F)cc(NC(=O)N2CCC(n3c(=O)[nH]c4ncccc43)CC2)c1=O

Ki [3]: 1.9 µM
Structure (SMILES): Cn1cc(-c2ncccn2)cc(NC(=O)N2CCC(n3c(=O)[nH]c4ncccc43)CC2)c1=O

IC50 [1]: 0.495 µM
Cmax [8]: 20.3 µM
IC50 [2]: 10.9 µM
half-life [9]: 3 h
clearance [10]: 1.3 mL/min/kg
bioavailability [11]: 40%
Ki [3]: 0.498 µM
Structure (SMILES): Cn1cc(-c2ccccc2)cc(NC(=O)N2CCC(n3c(=O)[nH]c4ncccc43)CC2)c1=O

IC50 [1]: 0.337 µM
Ki [3]: 0.155 µM
Structure (SMILES): Cn1cc(-c2cccc(F)c2)cc(NC(=O)N2CCC(n3c(=O)[nH]c4ncccc43)CC2)c1=O

IC50 [1]: 0.142 µM
IC50 [2]: 0.715 µM
Ki [3]: 0.042 µM
Structure (SMILES): Cn1cc(-c2cccc(O)c2)cc(NC(=O)N2CCC(n3c(=O)[nH]c4ncccc43)CC2)c1=O

IC50 [1]: 0.088 µM
bioavailability [4]: 3%
Cmax [8]: 0.1 µM
half-life [5]: 2.9 h
half-life [9]: 1.1 h
clearance [10]: 16.1 mL/min/kg
Cmax [6]: 0.6 µM
clearance [7]: 0.6 mL/min/kg
bioavailability [11]: 2%
Ki [3]: 0.043 µM
Structure (SMILES): Cn1cc(-c2ccc(O)cc2)cc(NC(=O)N2CCC(n3c(=O)[nH]c4ncccc43)CC2)c1=O

IC50 [1]: 0.827 µM
Ki [3]: 0.22 µM
Structure (SMILES): Cn1cc(-c2ccccc2O)cc(NC(=O)N2CCC(n3c(=O)[nH]c4ncccc43)CC2)c1=O

IC50 [1]: 1.07 µM
Ki [3]: 0.27 µM
Structure (SMILES): Cn1cc(-c2cccnc2)cc(NC(=O)N2CCC(n3c(=O)[nH]c4ncccc43)CC2)c1=O

IC50 [1]: 0.186 µM
Ki [3]: 0.054 µM
Structure (SMILES): O=C(Nc1cc(-c2ccccc2F)cn(CC(F)(F)F)c1=O)N1CCC(n2c(=O)[nH]c3ncccc32)CC1

IC50 [1]: 0.567 µM
Ki [3]: 0.166 µM
Structure (SMILES): Cn1cc(-c2cccc(F)c2F)cc(NC(=O)N2CCC(n3c(=O)[nH]c4ncccc43)CC2)c1=O
